Patent publication US20190076440A1, “TREATMENT OF TISSUE DISORDERS” (priority 2016, published 2019)

Experiments:
[1] = test system: cells expressing wild-type (WT) or N617K collagen X; assay: General protein synthesis rates in cells expressing collagen X; assay type: cell-based; conditions: CBZ for 24 hours
Method: FIG. 5 illustrates the effect of CBZ treatment in vitro (a) Cell viability of cell treated with 20 μM CBZ. (b) Collagen X mRNA level of HeLa cells transiently transfected with a rang of collagen X mutations in the presence or absence of CBZ for 24 hours. (c) General protein synthesis rates of cells expressing wild-type (WT) or N617K collagen X and treated with CBZ for 24 hours. UTF=untransfected cell controls. Mean±SEM of three independent experiments in each case.

[2] = test system: MCDS mice (homozygous N617K collagen X mutation); assay: Tibial growth plate histology, immunohistochemistry, in situ hybridisation and TRAP staining in MCDS mice; assay type: in vivo, mouse
Method: FIG. 2 illustrates the effect of carbamazepine on the growth plate pathology associated with MCDS. 3 week old MCDS mice were treated with CBZ for a period of one week. Untreated MCDS mice and mice wild-type for collagen X (WT) were used as controls. (a) H+E staining of the tibial growth plate at 4 weeks of age. (b) Immunohistochemistry for Grp78 and (c) Immunohistochemistry for collagen X. Yellow bars show the hypertrophic zone. Scale bars equal to 100 μM in all cases. (d) is a table showing growth plate zone measurements at 4 weeks of age. Mean±SEM. Number of animals shown in brackets. Significance between mutant untreated mice and treated mice shown by the asterisk. (e) Western blots of rib growth plate cartilage at 4 weeks of age for Grp78, ATF4, p62/SQSTM1 and LC3-II alongside the associated coomassie blue stain used as a loading control. Quantification of these blots against the coomassie protein level is shown in supplementary S4. (f) X-ray images of the pelvis at 6 weeks of age. The angle between the lines was measured in a minimum of 5 animals and a graph showing the mean±SEM is shown in (g). Graphs showing the percentage increase in growth of the (h) tibia and (i) femur from 3 weeks of age.
FIG. 3 illustrates the effect of carbamazepine on chondrocyte differentiation MCDS mice were treated with CBZ for 1 week. In situ hybridisation for a) collagen X mRNA levels b) Collagen II mRNA levels c) Osteopontin mRNA levels d) MMP13 mRNA levels. e) TRAP staining for osteoclast number, osteoclasts shown by the white asterisks. (f) Quantification of the number of osteoclasts per mm of vascular invasion front. Mean±SEM. (g) H+E image showing the terminal hypertrophic chondrocytes at the vascular invasion front. g) The height of the most terminal hypertrophic chondrocytes (within the red bracket) was measured, and mean±SEM is shown in (h). Hypertrophic zone marked by the yellow bar. Vascular invasion front shown by the orange line. Scale bar equal to 100 μM in all cases. Mean±SEM (*P<0.05 **P<0.005 ***P<0.0005).
The generation and genotyping of the Col10a1 p.N617K mouse line has been described previously (Rajpar et al 2009). Mice homozygous for the MCDS-causing N617K collagen X mutation were x-rayed at 3 weeks of age and treated with carbamazepine (250 mg/kg/day) for up to 21 days via a subcutaneous implantation of a slow-release pellet (Innovative research of America USA C-113) whilst the mouse was under anaesthetic. The incision was sutured closed, glued using Vetbond tissue adhesive (Santa-Cruz sc-361931) and the mice given an appropriate dose of buprenorphine painkiller depending on their body weight. Male mice were X-rayed once per week in order monitor bone growth; female mice were sacrificed after 1 week of treatment either by cervical dislocation or by carbon dioxide overdose under the provisions of the Animals (Scientific Procedures) Act 1986 and tissues collected for histological analysis. All procedures were carried out according to Home Office regulations.
Hind limbs were dissected and fixed overnight in ice-cold 4% paraformaldehyde (w/v) in 1×DEPC-PBS or 95% ethanol/5% acetic acid (v/v), and decalcified in 0.8 M ethyl-diamine tetracetic acid (EDTA) pH 7.4 for a period of one week. The samples were embedded in paraffin wax and sectioned sagittally using a cool-cut HM 355 S microtime (MicRom) generating 5 μm thick sections. Sections were collected on positively charged superfrost slides (VWR) and dried overnight prior to histological staining, immunohistochemistry or in situ hybridisation.
H+E staining was performed as described previously ^10 and images taken using a Carl Zeiss Axiovision microscope fitted with an Axiocam colour CCD camera and associated Axiovision software.
Growth plate zone widths were measured on images of known magnification as described previously (Rajpar et al 2009). […]

R992C Col2a1 SEDC mice = assay: TUNEL assay of chondrocyte apoptosis in the tibial growth plate of SEDC mice; assay type: in vivo; conditions: single treated mouse, no quantitative analysis
Method: The effect of CBZ on p.R992C Col2a1 mutant mice (spondyloepiphyseal dysplasia congenital (SEDC) model mice) was tested.
R992C Col2a1 SEDC mice were treated with carbamazepine (CBZ), to determine whether treatment ameliorates the disease phenotype. Increased chondrocyte apoptosis within the epiphyseal growth plate is associated with the onset of disease from 3 weeks in mouse models expressing this mutant form of COL2A1.
Chondrocyte apoptosis was detected by a Terminal deoxynucleotide transferase dUTP nick end labelling (TUNEL) assay. Tibial growth plates from wild type and SEDC mutant mice were stained according to the manufactures instructions before being imaged (data not shown).

[3] = test system: wild type (+/+) or Col1a2 p.G610C (+/-) osteoblast cells; assay: Cellular stress assay: CHOP expression by qPCR in osteoblasts; assay type: cell-based, mouse; conditions: 20 μM CBZ, 21 days, relative to DMSO controls
Method: Cells were incubated for 21 days with 20 μM CBZ before extracting RNA and quantification by qPCR. Each data point represents a separate biological replicate. Error bars show standard error of mean. *=p<0.05.
Expression levels of CCAAT-enhancer binding protein homologous protein (CHOP) was measured. Wild type (+/+) or Col1a2 p.G610C (+/−) cells were incubated in osteogenic differentiation media for 21 days with or without 20 μM CBZ.
RNA was extracted from the cells after 21 days and the levels of Chop gene expression was quantified by qPCR using a protocol as previously described herein.

## NC(=O)N1c2ccccc2C=Cc2ccccc21 [CBZ, Carbamazepine]
[1]
  rates of general protein synthesis: did not affect
[2]; 250 mg/kg body weight/day, 1 week, vs untreated MCDS controls
  size of the hypertrophic zone: significant reduction
[2]; 1 week
  BiP protein in growth plate sections (immunostaining): reduced
[2]; CBZ for 1 week
  expression pattern of collagen X, collagen II, OPN and MMP13 (in situ hybridisation): altered the expression pattern of each of these markers towards that seen in the WT mouse
  hypertrophy, based on the height of the terminal hypertrophic chondrocytes: enhanced
  osteoclast recruitment to the vascular invasion front (TRAP staining): partially restored
[2]; tibial growth plate, 1 week
  level of extracellular collagen X (immunohistochemistry): no overt increase
  level of intracellular collagen X (immunohistochemistry): reduced
R992C Col2a1 SEDC mice
  level of apoptosis in tibial growth plate chondrocytes (TUNEL): did not necessarily reduce
[3]
  Chop expression: significantly decreased
